Measured values taken from the NIST ThermoML archive (doi:10.1021/je200811n).
± gives the expanded uncertainty stated by the source.

Settings: Liquid, Hot wire method

F/C=C/C(F)(F)F [trans-1,3,3,3-tetrafluoropropene]
Settings	thermal conductivity [W/m/K]
203.15 K	0.1101 ± 0.00064
213.15 K	0.1064 ± 0.00063
223.15 K	0.1024 ± 0.0006
233.15 K	0.0984 ± 0.0006

Settings	thermal conductivity [W/m/K]
203.18 K, 711 kPa	0.1106 ± 0.0012
203.18 K, 5522 kPa	0.1124 ± 0.0012
203.18 K, 10459 kPa	0.114 ± 0.0012
203.18 K, 15332 kPa	0.1155 ± 0.0013
203.18 K, 20782 kPa	0.1173 ± 0.0013
203.28 K, 739 kPa	0.1103 ± 0.0012
203.28 K, 5531 kPa	0.112 ± 0.0012
203.28 K, 10473 kPa	0.1137 ± 0.0012
203.29 K, 15354 kPa	0.1152 ± 0.0013
203.29 K, 20780 kPa	0.1169 ± 0.0013
203.54 K, 5526 kPa	0.1122 ± 0.0012
203.54 K, 10469 kPa	0.1137 ± 0.0012
203.55 K, 747 kPa	0.1104 ± 0.0012
203.55 K, 15371 kPa	0.1153 ± 0.0013
203.56 K, 20781 kPa	0.1169 ± 0.0013
203.67 K, 5527 kPa	0.1118 ± 0.0012
203.67 K, 10483 kPa	0.1135 ± 0.0012
203.67 K, 15392 kPa	0.1149 ± 0.0012
203.67 K, 20820 kPa	0.1167 ± 0.0013
203.68 K, 729 kPa	0.11 ± 0.0012
203.94 K, 20822 kPa	0.1168 ± 0.0013
203.95 K, 15357 kPa	0.1149 ± 0.0012
203.96 K, 5536 kPa	0.1119 ± 0.0012
203.96 K, 10470 kPa	0.1136 ± 0.0012
203.97 K, 733 kPa	0.1102 ± 0.0012
204.1 K, 15343 kPa	0.1146 ± 0.0012
204.1 K, 20832 kPa	0.1164 ± 0.0013
204.11 K, 5538 kPa	0.1115 ± 0.0012
204.11 K, 10474 kPa	0.1133 ± 0.0012
204.12 K, 727 kPa	0.1098 ± 0.0012
204.38 K, 20839 kPa	0.1166 ± 0.0013
204.39 K, 15379 kPa	0.1146 ± 0.0012
204.4 K, 10465 kPa	0.1133 ± 0.0012
204.41 K, 5532 kPa	0.1118 ± 0.0012
204.42 K, 727 kPa	0.11 ± 0.0012
204.56 K, 15381 kPa	0.1145 ± 0.0012
204.56 K, 20849 kPa	0.1163 ± 0.0013
204.57 K, 10473 kPa	0.113 ± 0.0012
204.59 K, 5544 kPa	0.1114 ± 0.0012
204.62 K, 736 kPa	0.1094 ± 0.0012
204.85 K, 20860 kPa	0.1164 ± 0.0013
204.87 K, 15409 kPa	0.1147 ± 0.0012
204.88 K, 10437 kPa	0.1131 ± 0.0012
204.9 K, 5524 kPa	0.1115 ± 0.0012
204.92 K, 744 kPa	0.1095 ± 0.0012
205.05 K, 20874 kPa	0.116 ± 0.0013
205.06 K, 15407 kPa	0.1143 ± 0.0012
205.09 K, 10456 kPa	0.1127 ± 0.0012
205.1 K, 5515 kPa	0.1111 ± 0.0012
205.13 K, 719 kPa	0.1088 ± 0.0012
221.66 K, 461 kPa	0.1031 ± 0.0011
221.67 K, 5469 kPa	0.1047 ± 0.0011
221.74 K, 21449 kPa	0.1111 ± 0.0012
221.76 K, 463 kPa	0.1036 ± 0.0011
221.76 K, 5431 kPa	0.1048 ± 0.0011
221.76 K, 10410 kPa	0.1068 ± 0.0012
221.76 K, 15721 kPa	0.1089 ± 0.0012
221.84 K, 21448 kPa	0.1108 ± 0.0012
221.86 K, 15726 kPa	0.1087 ± 0.0012
221.88 K, 10573 kPa	0.1069 ± 0.0012
222.06 K, 464 kPa	0.1022 ± 0.0011
222.06 K, 10416 kPa	0.1071 ± 0.0012
222.08 K, 5404 kPa	0.1049 ± 0.0011
222.12 K, 21441 kPa	0.1109 ± 0.0012
222.15 K, 15723 kPa	0.1088 ± 0.0012
222.18 K, 10370 kPa	0.1067 ± 0.0012
222.19 K, 465 kPa	0.103 ± 0.0011
222.19 K, 5436 kPa	0.1046 ± 0.0011
222.24 K, 21442 kPa	0.1106 ± 0.0012
222.27 K, 15726 kPa	0.1085 ± 0.0012
222.3 K, 10660 kPa	0.1066 ± 0.0011
222.49 K, 10407 kPa	0.1072 ± 0.0012
222.5 K, 470 kPa	0.1023 ± 0.0011
222.5 K, 5467 kPa	0.105 ± 0.0011
222.5 K, 10293 kPa	0.1066 ± 0.0011
222.54 K, 21423 kPa	0.1106 ± 0.0012
222.57 K, 15731 kPa	0.1085 ± 0.0012
222.64 K, 10411 kPa	0.1065 ± 0.0011
222.65 K, 468 kPa	0.1027 ± 0.0011
222.65 K, 5467 kPa	0.1046 ± 0.0011
222.68 K, 21432 kPa	0.1103 ± 0.0012
222.72 K, 15730 kPa	0.1082 ± 0.0012
222.97 K, 10413 kPa	0.1065 ± 0.0012
222.99 K, 5478 kPa	0.1038 ± 0.0011
223 K, 470 kPa	0.1026 ± 0.0011
223 K, 21446 kPa	0.1104 ± 0.0012
223.04 K, 15727 kPa	0.1083 ± 0.0012
223.15 K, 10394 kPa	0.1061 ± 0.0012
223.16 K, 5476 kPa	0.1042 ± 0.0011
223.18 K, 469 kPa	0.1021 ± 0.0011
223.18 K, 21443 kPa	0.11 ± 0.0012
223.22 K, 15728 kPa	0.108 ± 0.0012
223.49 K, 10439 kPa	0.1055 ± 0.0011
223.5 K, 21421 kPa	0.1101 ± 0.0012
223.52 K, 5475 kPa	0.105 ± 0.0011
223.55 K, 15715 kPa	0.1081 ± 0.0012
223.7 K, 10408 kPa	0.1058 ± 0.0011
223.71 K, 21432 kPa	0.1098 ± 0.0012
223.73 K, 5485 kPa	0.104 ± 0.0011
223.75 K, 474 kPa	0.1022 ± 0.0011
223.76 K, 15729 kPa	0.1077 ± 0.0012
241.49 K, 10379 kPa	0.09991 ± 0.0011
241.51 K, 15379 kPa	0.1018 ± 0.0011
241.52 K, 20702 kPa	0.1042 ± 0.0011
241.53 K, 5318 kPa	0.09771 ± 0.0011
241.56 K, 614 kPa	0.09561 ± 0.001
241.59 K, 10369 kPa	0.0996 ± 0.0011
241.6 K, 15368 kPa	0.1014 ± 0.0011
241.61 K, 20709 kPa	0.1038 ± 0.0011
241.62 K, 5325 kPa	0.09743 ± 0.0011
